Target: WT-EGFR (A431 cell line) (Homo sapiens, UniProt P00533)
Assay: A431 cell proliferation (Cell Titer Glo), WT-EGFR
Assay type: cell-based
Conditions: A431 cells, 72 hours
Method: To determine the ability of Compound No. 6 to target wild type HER2, wild type EGFR, and relevant mutants of each, a panel of BaF3 cell lines and the A431 cell line were dosed and assessed in cell proliferation assays. The BaF3 parental cell line is normally dependent on IL-3 for proliferation, but when transformed with active tyrosine kinase can grow in the absence of IL-3. However, when transformed kinase activity is inhibited by a targeted small molecule the associated proliferation is reduced in proportion to the extent of inhibition. […] Proliferation was assessed using the Cell Titer Glo cell proliferation kit (Promega # G7573). […] Cell Titer Glo was added to plated cells at 15 ul per well, the plate was shaken for 20 minutes at room temperature, and luminescence was measured using Victor X3 Multimode plate reader (Perkin Elmer), Cell Titer Glo readings were taken following 72 hours (T72) after addition of Compound No. 6. […]
The BaF3 parental cell line is normally dependent on IL-3 for proliferation, but when transformed with active tyrosine kinase can grow in the absence of IL-3. […] Proliferation was assessed using the Cell Titer Glo cell proliferation kit (Promegaf# G7573). […] Cell Titer Glo was added to plated cells at 15 ul per well, the plate was shaken for 20 minutes at room temperature, and luminescence was measured using Victor X3 Multimode plate reader (Perkin Elmer). […]

WT-EGFR (A431 cell line), sequence (P00533 25-1210): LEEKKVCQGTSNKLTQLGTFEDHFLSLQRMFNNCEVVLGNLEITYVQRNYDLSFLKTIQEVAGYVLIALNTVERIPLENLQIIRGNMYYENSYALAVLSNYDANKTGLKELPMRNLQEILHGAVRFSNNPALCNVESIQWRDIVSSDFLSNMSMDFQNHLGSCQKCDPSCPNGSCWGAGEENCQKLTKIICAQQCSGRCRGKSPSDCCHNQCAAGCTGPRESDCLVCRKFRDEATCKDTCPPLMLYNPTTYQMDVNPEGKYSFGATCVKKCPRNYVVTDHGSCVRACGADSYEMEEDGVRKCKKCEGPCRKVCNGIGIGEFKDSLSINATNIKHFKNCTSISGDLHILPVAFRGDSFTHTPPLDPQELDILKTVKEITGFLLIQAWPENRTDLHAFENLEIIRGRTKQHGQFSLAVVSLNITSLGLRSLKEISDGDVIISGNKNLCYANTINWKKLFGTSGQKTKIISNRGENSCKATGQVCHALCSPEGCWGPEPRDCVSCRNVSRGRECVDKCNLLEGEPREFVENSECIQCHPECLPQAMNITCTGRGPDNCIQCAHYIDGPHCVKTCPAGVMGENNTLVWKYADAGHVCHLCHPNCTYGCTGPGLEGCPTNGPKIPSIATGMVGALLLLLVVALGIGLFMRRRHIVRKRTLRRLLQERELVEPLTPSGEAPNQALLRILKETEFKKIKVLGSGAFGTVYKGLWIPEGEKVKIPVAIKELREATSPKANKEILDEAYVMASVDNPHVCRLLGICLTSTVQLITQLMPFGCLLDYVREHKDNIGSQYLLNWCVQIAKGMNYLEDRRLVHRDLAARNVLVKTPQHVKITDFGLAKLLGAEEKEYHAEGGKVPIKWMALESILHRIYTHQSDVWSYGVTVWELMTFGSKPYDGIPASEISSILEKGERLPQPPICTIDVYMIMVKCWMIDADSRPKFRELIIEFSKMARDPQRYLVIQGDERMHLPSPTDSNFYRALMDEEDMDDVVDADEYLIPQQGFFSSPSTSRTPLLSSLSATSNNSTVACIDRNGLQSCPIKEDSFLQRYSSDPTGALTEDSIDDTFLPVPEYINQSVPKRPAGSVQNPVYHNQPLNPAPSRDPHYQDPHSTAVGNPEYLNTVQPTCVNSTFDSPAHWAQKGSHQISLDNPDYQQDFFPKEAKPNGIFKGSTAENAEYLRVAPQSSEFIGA

Row | SMILES | IC50
1 | C=CC(=O)Nc1cc2c(Nc3ccc(OCc4ccccn4)c(Cl)c3)ncnc2cc1OCCN1CCOCC1 [compound 8] | > 100 nM
2 | C=CC(=O)Nc1cc2c(Nc3cc(Cl)c(OCc4cccc(F)c4)cc3F)ncnc2cc1OCCN1CCOCC1 [compound 6] | > 100 nM
